Measurements taken from patent publication US8012463B2, “Coordination complex of diaminocyclohexaneplatinum(II) with block copolymer containing poly(carboxylic acid) segment and antitumor agent comprising the same” (Toudai TLO, Ltd., priority 2003, dated 2011).

Key:
[1] = test system: mouse colon 26 (C-26) cell strain; test: Cytotoxicity in vitro, growth inhibition by MTT method; format: cell-based; conditions: C-26 cells
Description: Growth inhibiting activities of free CDDP, CDDP micelle, DACH Pt micelle, mixtures of DACH Pt micelle and CDDP micelle at various mixing ratios (1/3, 1/1 and 3/1) against mouse colon 26 (C-26) cell strain were evaluated with MTT method. 5,000 cells were cultured in a 96 well-multiplate supplied with 50 μl of RPMI 1640 medium containing 10% fetal bovine serum. The cells were exposed to drugs for 48 and 72 hours. MTT solution was added, and 150 μl of a solution containing 10 wt % of sodium dodecylsulfate (SDS) supplemented with 0.01M HCl was added after 6 hours. Viability of cells was then measured based on optical density at 570 nm of formazan produced after 24 hours.

ascites sarcoma 180 = conditions: cited from earlier work

With N.N.[Cl][Pt][Cl] [Free CDDP, Cisplatin] the IC50 ([1]; culture time 48 hours) was 1.5 µg/mL and the IC50 ([1]; culture time 72 hours) was 0.65 µg/mL.
In the case of NC1CCCCC1N.O=C([O-])CC(=O)[O-].[Pt+2] (centres unmarked) [Pt(malonato)-(dach)], the “therapeutic index relative to Pt(oxalato)-(cis-dach)” value (ascites sarcoma 180; in vivo) is given as “half or less” and the “ED90 dose compared with Pt(oxalato)-(dach)” value (ascites sarcoma 180; ratio to Pt(oxalato)-(dach)) is given as ≥ 5 times.
For O=C1[O][Pt-2]2([NH2+]C3CCCC[C@H]3[NH2+]2)[O]C1=O (some centres unmarked) [Pt(oxalato)-(dach)], the ED90 (ascites sarcoma 180; experimental animals bearing ascites sarcoma 180) is given as “excellent ED90”.
